Article PMC10497752, “Heparins are potent inhibitors of ectonucleotide pyrophosphatase/phospho-diesterase-1 (NPP1) – a promising target for the immunotherapy of cancer” (Frontiers in Immunology, 2023)

Assays:
Assay type in all cases: biochemical
Details in all cases: 20 µg/mL (12 µM)
human NPP5 = molecular target: T1, human NPP5 (Homo sapiens, UniProt Q9UJA9); test: NPP5 colorimetric assay, p-Nph-5'-TMP as substrate
T1 sequence (Q9UJA9 25-477): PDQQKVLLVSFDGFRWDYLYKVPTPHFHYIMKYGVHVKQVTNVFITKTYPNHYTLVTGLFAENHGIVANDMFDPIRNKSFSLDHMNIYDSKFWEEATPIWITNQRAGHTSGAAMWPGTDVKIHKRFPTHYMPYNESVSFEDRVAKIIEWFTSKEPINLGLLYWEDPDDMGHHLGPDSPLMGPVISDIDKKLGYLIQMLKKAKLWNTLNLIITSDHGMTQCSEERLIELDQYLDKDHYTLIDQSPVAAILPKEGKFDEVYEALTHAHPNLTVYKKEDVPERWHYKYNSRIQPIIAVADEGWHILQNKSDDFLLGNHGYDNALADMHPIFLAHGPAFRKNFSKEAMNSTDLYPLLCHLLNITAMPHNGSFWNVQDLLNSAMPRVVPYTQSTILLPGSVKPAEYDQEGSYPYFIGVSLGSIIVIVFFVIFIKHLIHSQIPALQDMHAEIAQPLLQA
Experimental: Compounds 1, 2, 5, 6, and 7 were screened at different concentrations using 400 μM of p-nitrophenyl thymidine monophosphate (p-Nph-5´-TMP) as substrate to study potential inhibition of NPP3 and NPP5 using a colorimetric assay as previously described ([21]). Soluble and purified human NPP3, prepared as previously described ([22]), and human NPP5 ([23]) were diluted in the assay buffer (50 mM TRIS HCl, 2 mM CaCl2, and 0.2 mM ZnCl2, pH 9.00), and 0.09 µg of NPP3, or 0.4 µg of NPP5 were employed. The mixtures were incubated for 30 min at 37°C in case of NPP3, and for 100 min at 37°C in case of NPP5, and the reactions were subsequently terminated by adding 20 μL of 1.0 N aq. NaOH solution. The assay is based on the enzymatic ester hydrolysis of p-Nph-5’-TMP which results in the formation of the yellow p-nitrophenolate anion. The absorption was measured at 400 nm using a BMG PheraStar FS plate reader (BMG Labtech GmbH, Ortenberg, Germany). Each analysis was repeated three times with triplicate measurements.

human NTPDase3 = molecular target: T2, human NTPDase3 (Homo sapiens, UniProt O75355); test: NTPDase CE-based assay, NTPDase3
T2 construct: made in house; host or cells: COS-7 cells
T2 sequence (O75355 1-529): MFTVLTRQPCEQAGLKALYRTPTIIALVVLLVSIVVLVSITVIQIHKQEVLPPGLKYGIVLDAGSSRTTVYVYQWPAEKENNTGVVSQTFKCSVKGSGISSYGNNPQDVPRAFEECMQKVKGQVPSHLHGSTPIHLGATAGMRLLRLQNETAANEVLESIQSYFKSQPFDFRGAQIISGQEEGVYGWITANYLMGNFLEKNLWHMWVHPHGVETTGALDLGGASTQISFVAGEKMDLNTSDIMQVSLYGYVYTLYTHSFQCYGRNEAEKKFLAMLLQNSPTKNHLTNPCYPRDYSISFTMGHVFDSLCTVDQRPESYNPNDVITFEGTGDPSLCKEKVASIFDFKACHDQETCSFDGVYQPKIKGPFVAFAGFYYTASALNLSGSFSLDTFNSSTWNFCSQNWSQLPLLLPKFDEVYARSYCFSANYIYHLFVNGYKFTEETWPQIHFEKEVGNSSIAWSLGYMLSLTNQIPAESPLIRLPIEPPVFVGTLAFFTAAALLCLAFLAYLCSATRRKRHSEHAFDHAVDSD
Experimental: (§1) For monitoring the activity of human NTPDases (subtypes 1, 2, 3 and 8) in the presence of test compounds, a CE-based assay system was used, according to a published procedure ([11], [25]). The following concentrations of test compounds were investigated in initial screening studies: 63 IU/mL of compounds 1 and 2, 30 µM of compound 6. For selectivity studies, the following concentration were employed: 50 IU/mL of 1, 12 µM of 6, and 48 µM of 7. The amount of enzyme was selected according to previously performed enzymatic titration, and adjusted to ensure a 10–20% conversion rate. Enzymes were obtained by transfection of COS-7 cells using plasmids encoding human NTPDase1 (GenBank accession number U87967) ([26]), NTPDase2 (NM_203468) ([27]), a kind gift of Dr. A.F. Knowles (San Diego, CA), NTPDase3 (AF034840) ([28]), a kind gift of Dr. T.L. Kirley (Cincinnati, OH) and human NTPDase8 (AY430414) ([29]) and purified as previously described ([30], [31]). The reaction buffer consisted of 10 mM HEPES, 2 mM CaCl2, and 1 mM MgCl2, pH 7.4. In the CE assay, the selected substrate concentration (ATP) was 100 µM for all studied human NTPDases (-1, -2, -3 and -8). […] The released products were separated by CE and quantified by their UV-absorption at 260 nm with ADP and AMP as external standards, as previously described ([11]); positive and negative controls were included.

human NTPDase8 = molecular target: T3, human NTPDase8 (Homo sapiens, UniProt Q5MY95); test: NTPDase CE-based assay, NTPDase8
T3 construct: made in house; host or cells: COS-7 cells
T3 sequence (Q5MY95 1-495): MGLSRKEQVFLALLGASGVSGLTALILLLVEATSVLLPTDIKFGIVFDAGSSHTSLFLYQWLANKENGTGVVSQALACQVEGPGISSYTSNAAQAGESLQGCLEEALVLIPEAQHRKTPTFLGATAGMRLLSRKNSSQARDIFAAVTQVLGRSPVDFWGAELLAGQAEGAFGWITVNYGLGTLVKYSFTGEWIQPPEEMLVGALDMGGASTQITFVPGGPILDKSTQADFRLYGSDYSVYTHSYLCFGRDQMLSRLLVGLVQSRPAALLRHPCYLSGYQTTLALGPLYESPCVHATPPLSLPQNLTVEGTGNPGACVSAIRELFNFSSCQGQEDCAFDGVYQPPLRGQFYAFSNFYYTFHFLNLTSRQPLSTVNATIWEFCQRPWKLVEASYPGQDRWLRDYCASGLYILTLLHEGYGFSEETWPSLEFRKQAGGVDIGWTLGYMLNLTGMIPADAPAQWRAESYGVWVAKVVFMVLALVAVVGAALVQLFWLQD
Experimental: as §1

CO[C@H]1O[C@H](COS(=O)(=O)O)[C@@H](O[C@@H]2O[C@@H](C(=O)O)[C@@H](O[C@H]3O[C@H](COS(=O)(=O)O)[C@@H](O[C@@H]4O[C@H](C(=O)O)[C@@H](O[C@H]5O[C@H](COS(=O)(=O)O)[C@@H](O)[C@H](O)[C@H]5NS(=O)(=O)O)[C@H](O)[C@H]4O)[C@H](OS(=O)(=O)O)[C@H]3NS(=O)(=O)O)[C@H](O)[C@H]2OS(=O)(=O)O)[C@H](O)[C@H]1NS(=O)(=O)O [Compound 6, Fondaparinux]
no effect: NPP5 inhibition, selectivity study (human NPP5) | NTPDase3 inhibition, selectivity study (human NTPDase3) | NTPDase8 inhibition, selectivity study (human NTPDase8)
